Data reported in patent US20200246316A1, “METHODS OF TREATING POST-SURGICAL PAIN WITH A THIAZOLINE ANTI-HYPERALGESIC AGENT” (CERSCI THERAPEUTICS, INC., priority 2019, published 2020).
“Also recorded” adds a separate entry of the source. Counter-ions that a name gives are not always drawn. Like-named read-outs stand apart in the source and are kept apart here.

Legend:
[1] = Dose formulation stability (HPLC/UV); assay type: physicochemical
Protocol: Dose formulation analysis for all good laboratory practice (GLP) general toxicology studies was performed using a validated high-performance liquid chromatography (HPLC)/ultraviolet (UV) analytical method (2750-001-001 Dose Formulation Method 1). The vehicle used in the in vivo toxicology studies was 0.5% HPMC). The analytical method utilized HPLC with monitoring at 227 nm with an isocratic mobile phase of methanol with the column temperature set to 25° C. Linearity over a range of 1.0 to 200 mg/mL was observed. Dose formulations over this range were stable at room temperature for up to 13 days and were stable when stored frozen at −20° C. for up to 85 days.
In addition, formulation analysis for in vitro genetic toxicology studies was performed using a validated HPLC/UV analytical method (2750-001-001 Dose Formulation Method No. 2) with linearity over a range of 0.001 to 50 mg/mL. Dose formulations for in vitro assays were stable at room temperature for up to 1 day and when stored frozen at −20° C. for up to 45 days.

peroxynitrite = experiment: Models of protein nitration; assay type: biochemical; details: physiological conditions (neutral pH)
From the text: In cell-based assays of PN-mediated cytotoxicity, Compound 1 is protective. […] Chemically, Compound 1 can also react stoichiometrically with peroxynitrite to form a para-nitro adduct. Without being bound by theory, by targeting and removing peroxynitrite and peroxide, Compound 1 can disrupt the ensuing cascades that lead to hypersensitivity (protein modification, ion channel hyperexcitation) thus providing a long duration event in terms of pain relief.

[2] = test system: established incision-induced mechanical hyperalgesia; experiment: Brennan incisional pain model, treatment paradigm; assay type: in vivo, rat
From the text: Two incisional pain models were used to assess Compound 1 effects on hyperalgesia. The first model is referred to as the Brennan model in which, under anesthesia, a 1 cm longitudinal incision to the skin and underlying fascia of a rat hindpaw is made. The second is a variation but is a more invasive procedure in which the skin and muscle are spread apart using forceps which creates a longer-lasting hypersensitivity.
Using the Brennan protocol and a treatment paradigm in rat, Compound 1 (10 and 30 mg/kg PO), morphine (3 mg/kg SC) or vehicle were administered daily at 24 h post-incision, and again at 48 and 72 h post-incision. Mechanical thresholds were obtained at 1 h and 2 h post-dose in all cohorts on all days.

[3] = test system: rat models of diabetic neuropathy; experiment: Rat models of diabetic neuropathy (streptozotocin- and methylglyoxal-induced); assay type: in vivo; details: mono-hydrochloride
From the text: In various embodiments, Compound 1 is efficacious in in vivo animal models of acute post-incisional hyperalgesia, both prophylactically and palliatively. […] In various embodiments, less than about 1%, 0.8%, 0.6%, 0.4%, 0.2%, 0.1%, 0.08%, 0.06%, 0.04%, 0.02%, or 0.01% of Compound 1 in blood plasma penetrates the BBB.

[4] = Dog single oral dose MTD study; assay type: in vivo; details: for concentration at 0.5 h / concentration at 1 h / concentration at 2 h: dog, plasma, N = 2, read-out: Average Compound 1 Concentration in dog plasma
Protocol: The objective of a third single dose study in dogs was to determine the maximum tolerated dose (MTD) of Compound 1 following a single oral (gavage) dose in male and female dogs. Using a pyramiding dose schedule, dose levels of 250, 350 and 500 mg/kg were administered to 2 dogs/sex (after a washout period of at least three days, the same animals were dosed with the next dose level). The dose volume was 10 mL/kg body weight. The vehicle was 0.5% aqueous HPMC.

[5] = Dog 28-day repeat dose PO study; assay type: in vivo
Protocol: Beagle dogs (4/sex/group plus 2/sex/group for control and high dose animals for recovery) were administered daily doses of 0, 100, 250 or 400 mg/kg/day of Compound 1 in 0.5% HPMC. […] Dogs in Group 1 (Vehicle Control) were bled once at approximately 2-4 hours post-dose on those days.

OATP1B1 = molecular target: T1, OATP1B1 (Homo sapiens, UniProt Q9Y6L6); experiment: Inhibition of uptake (SLC) transporters; assay type: in vitro ADME
T1 construct: expressed in transfected cells; host or cells: HEK293 cells

OAT1 = molecular target: T2, OAT1 (Homo sapiens, UniProt Q4U2R8); experiment: Inhibition of uptake (SLC) transporters; assay type: in vitro ADME
T2 construct: expressed in transfected cells; host or cells: HEK293 cells

[6] = Cytotoxicity by lactate dehydrogenase (LDH) release; assay type: cell-based; details: human, HEK293 cells; read-out: percent cytotoxicity (LDH release)
[7] = Elimination from plasma after intravenous administration in rats; assay type: in vivo; details: rat
[8] = female, 250 mg/kg PO (Dose 1; Day 1), F
[9] = female, 350 mg/kg PO (Dose 3; Day 9), F
[10] = female, 500 mg/kg PO (Dose 2; Day 4), F
[11] = male, 250 mg/kg PO (Dose 1; Day 1), M
[12] = male, 350 mg/kg PO (Dose 3; Day 9), M
[13] = male, 500 mg/kg PO (Dose 2; Day 4), M

T2 sequence (Q4U2R8 whole entry): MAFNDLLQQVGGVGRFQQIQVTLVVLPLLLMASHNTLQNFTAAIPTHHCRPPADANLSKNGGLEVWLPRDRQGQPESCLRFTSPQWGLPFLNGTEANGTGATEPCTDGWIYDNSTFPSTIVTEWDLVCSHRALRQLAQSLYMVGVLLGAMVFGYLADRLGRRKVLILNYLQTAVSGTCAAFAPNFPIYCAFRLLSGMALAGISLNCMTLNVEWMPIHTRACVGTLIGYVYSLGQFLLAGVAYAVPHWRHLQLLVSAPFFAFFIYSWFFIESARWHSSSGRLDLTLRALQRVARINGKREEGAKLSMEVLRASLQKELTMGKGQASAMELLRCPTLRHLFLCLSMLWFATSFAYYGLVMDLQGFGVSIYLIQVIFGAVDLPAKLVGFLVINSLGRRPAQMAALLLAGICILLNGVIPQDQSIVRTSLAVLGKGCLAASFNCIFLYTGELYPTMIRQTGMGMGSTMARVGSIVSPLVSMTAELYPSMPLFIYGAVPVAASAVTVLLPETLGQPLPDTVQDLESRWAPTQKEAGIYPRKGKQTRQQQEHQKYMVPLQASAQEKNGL
T1 sequence (Q9Y6L6 whole entry): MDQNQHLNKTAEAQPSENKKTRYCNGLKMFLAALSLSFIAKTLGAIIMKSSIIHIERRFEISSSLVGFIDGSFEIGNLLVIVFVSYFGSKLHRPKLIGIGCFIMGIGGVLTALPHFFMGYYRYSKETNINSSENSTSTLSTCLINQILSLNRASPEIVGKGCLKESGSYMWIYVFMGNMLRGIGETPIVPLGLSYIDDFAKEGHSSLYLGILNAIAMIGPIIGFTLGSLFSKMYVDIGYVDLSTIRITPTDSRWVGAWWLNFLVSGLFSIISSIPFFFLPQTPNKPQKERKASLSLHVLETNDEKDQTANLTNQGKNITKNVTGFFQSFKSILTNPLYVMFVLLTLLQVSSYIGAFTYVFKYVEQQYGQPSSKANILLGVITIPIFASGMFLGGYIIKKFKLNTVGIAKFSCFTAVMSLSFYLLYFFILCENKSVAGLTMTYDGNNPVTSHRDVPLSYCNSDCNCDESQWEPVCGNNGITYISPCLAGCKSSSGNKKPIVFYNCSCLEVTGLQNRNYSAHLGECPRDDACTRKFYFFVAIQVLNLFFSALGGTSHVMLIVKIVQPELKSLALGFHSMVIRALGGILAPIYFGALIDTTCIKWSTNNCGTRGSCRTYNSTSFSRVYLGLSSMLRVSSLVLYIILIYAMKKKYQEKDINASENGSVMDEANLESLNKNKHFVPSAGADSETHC

## CC1(C)SC(Nc2ccccc2O)=N[C@@H]1C(=O)O [Compound 1, (R)-2-(2-hydroxyphenylamino)-5,5-dimethyl-4,5-dihydrothiazole-4-carboxylic acid mono-hydrochloride]
[1]; 0.5% HPMC, 1.0 to 200 mg/mL, room temperature
  dose formulation stability: up to 13 days
[1]; 0.5% HPMC, 1.0 to 200 mg/mL, stored frozen at −20° C.
  dose formulation stability: up to 85 days
[1]; formulations for in vitro assays, 0.001 to 50 mg/mL, room temperature
  dose formulation stability: up to 1 day
[1]; formulations for in vitro assays, 0.001 to 50 mg/mL, stored frozen at −20° C.
  dose formulation stability: up to 45 days
peroxynitrite
  removal of peroxynitrite in models of protein nitration: catalytically remove peroxynitrite
[2]; Compound 1 10 and 30 mg/kg PO daily, morphine 3 mg/kg SC, FIG. 12, mono-hydrochloride
  effect on established mechanical hyperalgesia (overall): prevented/reversed hyperalgesia completely; also recorded: reversed mechanical hyperalgesia
[2]; Day 1, 2-h time point, low-dose (10 mg/kg PO)
  reversal of hyperalgesia: partial reversal
[2]; Day 1, 1 h post-dose, high-dose (30 mg/kg PO)
  mechanical threshold: 26 g
[2]; Day 1, 2 h post-dose, high-dose (30 mg/kg PO)
  mechanical threshold: 27 g
[2]; Day 2, 1 h and 2 h post-dosing, both 10 and 30 mg/kg PO cohorts
  reversal of hyperalgesia: full reversal of hyperalgesia
[2]; Day 2 prior to dosing, high-dose (30 mg/kg PO)
  mechanical threshold: 29 g
[2]; Day 2 prior to dosing, low-dose (10 mg/kg PO)
  mechanical threshold: 26 g
[2]; Day 3 prior to dosing
  hyperalgesia: did not show hyperalgesia
[3]
  allodynia in models of diabetic neuropathy: alleviates allodynia; also recorded: reverses allodynia
[4]; [8]
  concentration at 0.5 h: 28 µg/mL
  concentration at 1 h: 54 µg/mL
  concentration at 2 h: 46 µg/mL
[4]; [9]
  concentration at 0.5 h: 67 µg/mL
  concentration at 1 h: 154 µg/mL
  concentration at 2 h: 119 µg/mL
[4]; [10]
  concentration at 0.5 h: 87 µg/mL
  concentration at 1 h: 136 µg/mL
  concentration at 2 h: 124 µg/mL
[4]; [11]
  concentration at 0.5 h: 71 µg/mL
  concentration at 1 h: 110 µg/mL
  concentration at 2 h: 91 µg/mL
[4]; [12]
  concentration at 0.5 h: 134 µg/mL
  concentration at 1 h: 220 µg/mL
  concentration at 2 h: 153 µg/mL
[4]; [13]
  concentration at 0.5 h: 111 µg/mL
  concentration at 1 h: 191 µg/mL
  concentration at 2 h: 193 µg/mL
[4]; single dose 500 mg/kg
  emesis incidence: three of the four dosed animals
[4]; single oral (gavage) dose 500 mg/kg
  tolerability: not tolerated
[5]; 28-day pivotal dog study, at some doses
  Cmax: over 100 μg/mL
[5]; 28-day study, dog
  Tmax: ≤ 1 h
[5]; both sexes, beagle, dog, in vivo, po, t1/2
  half-life: ~3.5 h
[5]; both sexes, beagle, dog, in vivo, po, 100 and 250 mg/kg treatment groups, read-out: median tmax
  Tmax: 1 h
[5]; both, beagle, dog, in vivo, po
  t1/2: 3.5 h
[5]; female, beagle, dog, in vivo, po, 100 mg/kg, Day 1, 100 mg/kg PO, F, read-out: Cmax
  Cmax: 69.3 µg/mL
[5]; female, beagle, dog, in vivo, po, 100 mg/kg, Day 15, 100 mg/kg PO, F, read-out: Cmax
  Cmax: 53 µg/mL
[5]; female, beagle, dog, in vivo, po, 100 mg/kg, Day 28, 100 mg/kg PO, F, read-out: Cmax
  Cmax: 60.8 µg/mL
[5]; female, beagle, dog, in vivo, po, 250 mg/kg, Day 1, 250 mg/kg PO, F, read-out: Cmax
  Cmax: 101 µg/mL
[5]; female, beagle, dog, in vivo, po, 250 mg/kg, Day 15, 250 mg/kg PO, F, read-out: Cmax
  Cmax: 94.6 µg/mL
[5]; female, beagle, dog, in vivo, po, 250 mg/kg, Day 28, 250 mg/kg PO, F, read-out: Cmax
  Cmax: 89.5 µg/mL
[5]; female, beagle, dog, in vivo, po, 400 mg/kg, Day 1, 400 mg/kg PO, F, read-out: Cmax
  Cmax: 129 µg/mL
[5]; female, beagle, dog, in vivo, po, 400 mg/kg, Day 15, 400 mg/kg PO, F, read-out: Cmax
  Cmax: 123 µg/mL
[5]; female, beagle, dog, in vivo, po, 400 mg/kg, Day 28, 400 mg/kg PO, F, read-out: Cmax
  Cmax: 131 µg/mL
[5]; male, beagle, dog, in vivo, po, 100 mg/kg, Day 1, 100 mg/kg PO, M, read-out: Cmax
  Cmax: 49.9 µg/mL
[5]; male, beagle, dog, in vivo, po, 100 mg/kg, Day 15, 100 mg/kg PO, M, read-out: Cmax
  Cmax: 50.4 µg/mL
[5]; male, beagle, dog, in vivo, po, 100 mg/kg, Day 28, 100 mg/kg PO, M, read-out: Cmax
  Cmax: 45 µg/mL
[5]; male, beagle, dog, in vivo, po, 250 mg/kg, Day 1, 250 mg/kg PO, M, read-out: Cmax
  Cmax: 104 µg/mL
[5]; male, beagle, dog, in vivo, po, 250 mg/kg, Day 15, 250 mg/kg PO, M, read-out: Cmax
  Cmax: 88 µg/mL
[5]; male, beagle, dog, in vivo, po, 250 mg/kg, Day 28, 250 mg/kg PO, M, read-out: Cmax
  Cmax: 105 µg/mL
[5]; male, beagle, dog, in vivo, po, 400 mg/kg, Day 1, 400 mg/kg PO, M, read-out: Cmax
  Cmax: 128 µg/mL
[5]; male, beagle, dog, in vivo, po, 400 mg/kg, Day 15, 400 mg/kg PO, M, read-out: Cmax
  Cmax: 112 µg/mL
[5]; male, beagle, dog, in vivo, po, 400 mg/kg, Day 28, 400 mg/kg PO, M, read-out: Cmax
  Cmax: 125 µg/mL
OATP1B1; HEK293 cells, probe [3H]-estradiol-17β-glucuronide (0.05 μM), 0.3-600 μM tested
  IC50: > 600 µM
OATP1B1; OATP1B1
  transporter inhibition: does not inhibit
OAT1; HEK293 cells, probe [3H]-p-aminohippurate (1 μM), 0.3-600 μM tested
  IC50: > 600 µM
OAT1; OAT1
  transporter inhibition: does not inhibit
[6]
  cytotoxicity: < 25%
[7]
  half-life: ~3 h
